Article doi:10.1101/2024.10.14.618121v2 (biorxiv, 2025)

What was measured:
DENV3 NS5 MTase [1] = molecular target: T1, DENV3 NS5 MTase (dengue virus type 3, UniProt V9TQY8); test: fluorescence polarization displacement of F-GTP; assay type: binding
T1 sequence (V9TQY8 2491-2753): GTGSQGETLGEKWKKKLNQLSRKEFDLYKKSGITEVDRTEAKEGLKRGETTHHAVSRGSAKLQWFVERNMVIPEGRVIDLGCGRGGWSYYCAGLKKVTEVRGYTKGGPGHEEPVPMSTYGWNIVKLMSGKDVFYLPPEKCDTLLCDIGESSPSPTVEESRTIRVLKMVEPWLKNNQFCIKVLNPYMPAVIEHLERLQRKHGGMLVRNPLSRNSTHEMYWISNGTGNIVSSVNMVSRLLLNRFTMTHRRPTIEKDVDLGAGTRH

DENV3 NS5 MTase [2] = molecular target: T1, DENV3 NS5 MTase; test: fluorescence polarization displacement of F-GTP; assay type: binding; remark: listed apart in the source

## O=c1c(O)c(-c2ccc(O)cc2)oc2c(O)c(O)cc(O)c12 [HC, herbacetin]
DENV3 NS5 MTase [1]
  Ki: ~430 nM
DENV3 NS5 MTase [2]
  IC50: 770 ± 10 nM
